Values of other authors, collected in patent publication US11796546B2, “Methods for quantifying drug concentration in a prodrug composition” (GENZYME CORPORATION, priority 2019, dated 2023).

Columns and labels:
[1] = system: type 2 diabetes mellitus patients

HdSQGTFTSDLSKQK(γE-palmitate)ESKAAQDFIEWLKAGGPSSGAPPPS-NH2 [SAR425899]
glycemic control and weight loss [1]: facilitate glycemic control and weight loss
in vivo clearance: rapid in vivo clearance
